Experimental data published in ChEMBL document CHEMBL1149122 (J Med Chem, 2004).

Experiments:
[1] = target: T1, Amine oxidase [flavin-containing] B (Homo sapiens, UniProt P27338); assay: Binding affinity towards monoamine oxidase B activity was measured using a benzylamine assay
T1 sequence (P27338 whole entry): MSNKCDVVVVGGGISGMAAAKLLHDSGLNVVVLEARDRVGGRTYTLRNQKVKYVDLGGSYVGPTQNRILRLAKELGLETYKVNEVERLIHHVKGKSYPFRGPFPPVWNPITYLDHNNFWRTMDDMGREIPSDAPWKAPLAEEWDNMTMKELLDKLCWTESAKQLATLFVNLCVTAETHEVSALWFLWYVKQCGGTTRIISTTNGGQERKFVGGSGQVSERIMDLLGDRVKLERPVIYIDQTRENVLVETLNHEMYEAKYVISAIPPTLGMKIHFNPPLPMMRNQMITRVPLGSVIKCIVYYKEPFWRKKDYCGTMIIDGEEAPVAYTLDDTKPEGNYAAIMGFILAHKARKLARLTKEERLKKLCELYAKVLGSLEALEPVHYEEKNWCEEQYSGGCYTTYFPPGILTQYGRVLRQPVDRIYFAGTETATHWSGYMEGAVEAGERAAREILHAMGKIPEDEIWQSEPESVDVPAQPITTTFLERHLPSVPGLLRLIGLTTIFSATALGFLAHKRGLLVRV

[2] = target: T2, Amine oxidase [flavin-containing] A (Homo sapiens, UniProt P21397); assay: Binding affinity towards monoamine oxidase A activity was measured using a kynuramine assay
T2 sequence (P21397 whole entry): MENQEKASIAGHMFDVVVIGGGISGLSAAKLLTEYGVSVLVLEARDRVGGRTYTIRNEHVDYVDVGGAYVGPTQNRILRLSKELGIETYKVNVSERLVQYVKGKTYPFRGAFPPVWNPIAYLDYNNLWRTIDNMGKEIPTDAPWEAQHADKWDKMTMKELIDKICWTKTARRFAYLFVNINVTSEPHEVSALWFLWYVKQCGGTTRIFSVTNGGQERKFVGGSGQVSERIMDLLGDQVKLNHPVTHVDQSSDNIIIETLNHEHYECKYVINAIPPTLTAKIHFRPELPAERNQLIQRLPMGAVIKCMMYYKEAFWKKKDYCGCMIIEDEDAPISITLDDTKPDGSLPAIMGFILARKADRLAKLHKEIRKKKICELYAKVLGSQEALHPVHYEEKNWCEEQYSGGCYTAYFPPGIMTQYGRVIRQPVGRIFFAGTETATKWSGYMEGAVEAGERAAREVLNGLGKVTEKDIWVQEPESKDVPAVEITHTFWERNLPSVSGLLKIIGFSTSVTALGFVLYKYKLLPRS

[3] = target: T3, Amine oxidase [flavin-containing] A (Rattus norvegicus, UniProt P21396); assay: Inhibitory concentration towards monoamine oxidase A in rat brain was measured; assay type: tissue-based
T3 sequence (P21396 whole entry): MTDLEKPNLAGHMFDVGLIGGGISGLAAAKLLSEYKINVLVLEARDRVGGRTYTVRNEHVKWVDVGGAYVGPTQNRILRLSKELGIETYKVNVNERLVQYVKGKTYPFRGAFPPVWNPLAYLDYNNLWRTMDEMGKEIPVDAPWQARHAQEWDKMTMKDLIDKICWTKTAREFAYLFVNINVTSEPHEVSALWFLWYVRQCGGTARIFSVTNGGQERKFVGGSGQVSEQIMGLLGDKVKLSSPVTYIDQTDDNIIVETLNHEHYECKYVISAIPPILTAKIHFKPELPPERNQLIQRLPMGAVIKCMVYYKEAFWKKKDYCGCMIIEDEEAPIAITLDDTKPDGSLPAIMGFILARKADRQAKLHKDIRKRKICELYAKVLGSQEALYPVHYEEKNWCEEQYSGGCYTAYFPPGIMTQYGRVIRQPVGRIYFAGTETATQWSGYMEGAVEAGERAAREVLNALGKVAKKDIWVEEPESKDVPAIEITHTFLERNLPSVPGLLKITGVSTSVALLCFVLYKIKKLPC

[4] = target: T4, Amine oxidase [flavin-containing] B (Rattus norvegicus, UniProt P19643); assay: Inhibitory concentration towards monoamine oxidase B in rat brain was measured; assay type: tissue-based
T4 sequence (P19643 whole entry): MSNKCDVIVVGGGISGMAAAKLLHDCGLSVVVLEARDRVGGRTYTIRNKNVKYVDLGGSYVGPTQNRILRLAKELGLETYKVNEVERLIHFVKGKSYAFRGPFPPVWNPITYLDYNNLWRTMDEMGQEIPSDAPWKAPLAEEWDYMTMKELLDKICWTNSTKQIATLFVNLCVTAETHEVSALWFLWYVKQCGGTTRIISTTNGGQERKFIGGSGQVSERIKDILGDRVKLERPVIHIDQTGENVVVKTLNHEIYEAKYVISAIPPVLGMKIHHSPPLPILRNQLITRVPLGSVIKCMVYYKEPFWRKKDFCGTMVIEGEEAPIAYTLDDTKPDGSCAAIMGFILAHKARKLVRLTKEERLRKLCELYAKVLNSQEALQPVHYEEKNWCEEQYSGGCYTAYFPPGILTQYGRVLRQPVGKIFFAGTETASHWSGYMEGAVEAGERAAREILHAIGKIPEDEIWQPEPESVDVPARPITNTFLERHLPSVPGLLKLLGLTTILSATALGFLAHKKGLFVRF

Compound | Ki [1] [µM] | Ki [2] [µM] | IC50 [3] [µM] | IC50 [4] [µM]
C#CCN[C@@H]1CCc2ccc(O)cc21 | 17 | 1.9 | – | –
C#CCN(C)[C@@H]1CCc2ccccc21 | 0.6 | 4.9 | – | –
C#CCN[C@@H]1CCc2ccc(OC(=O)N(C)CC)cc21 [LADOSTIGIL] | 213 | 227 | 85 | 120
